Laboratory results from US12708116B2, “Herbicidal compositions comprising 2,4-D” (BASF SE, priority 2023, dated 2026).

Key:
Assay in all cases: Post-emergence application in field trials
AMARE = type: in vivo, Amaranthus retroflexus; settings: 8 DAT; g ai/ha A-1 25, B-5 1066; growth stage 19; height 10-20 cm; water volume 140 l/ha
AMATU = type: in vivo, Amaranthus tuberculatos; settings: 8 DAT; g ai/ha A-1 12.5, B-5 1066; growth stage 19; height 10-20 cm; water volume 140 l/ha
PORPI = type: in vivo; settings: 8 DAT; g ai/ha A-1 25, B-5 1066; height 2-8 cm; water volume 140 l/ha
ECHCG = type: in vivo, Echinochloa crus-galli
SETVI = type: in vivo, Setaria viridis; settings: 15 DAT; g ai/ha A-1 12.5, B-5 1066, C-10 840; growth stage 13-19; height 2-18 cm; water volume 140 l/ha
GLXMA = type: in vivo, Glycine max; settings: Example 4; 21 DAT; g ai/ha A-1 12.5, B-5 1066; growth stage 13; height 5-8 cm
AMAPA = tested on: AMAPA
DIGSA = tested on: DIGSA
CYPES = settings: 21 DAT, water volume 140 l/ha
DATST = tested on: DATST
ZEAMX = settings: growth stage 15-16
SETVE = settings: growth stage 21-23
HORVW = settings: growth stage 23-29, height 20-25 cm

CCOC(=O)COc1ccccc1Oc1nc(-n2c(=O)cc(C(F)(F)F)n(C)c2=O)c(F)cc1Cl [A-1, ethyl 2-[2-[[3-chloro-5-fluoro-6-[3-methyl-2,6-dioxo-4-(trifluoromethyl)pyrimidin-1-yl]-2-pyridyl]oxy]phenoxy]acetate]
% Herbicidal activity (AMARE): 88% | % Herbicidal activity (AMATU): 88% | % Herbicidal activity (PORPI): 90% | % Herbicidal activity (ECHCG; 13 DAT, g ai/ha A-1 12.5, B-5 1066, C-10 840, growth stage 21-26, height 15-30 cm, water volume 187 l/ha): 23% | % Herbicidal activity (ECHCG; 13 DAT, g ai/ha A-1 25, B-5 1066, C-10 840, growth stage 21-26, height 15-30 cm, water volume 187 l/ha): 20% | % Herbicidal activity (ECHCG; 13 DAT, g ai/ha A-1 50, B-5 1066, C-10 840, growth stage 21-26, height 15-30 cm, water volume 187 l/ha): 23% | % Herbicidal activity (ECHCG; Example 4, 21 DAT, g ai/ha A-1 12.5, B-5 1066, growth stage 23-30, height 15-20 cm): 30% | % Herbicidal activity (ECHCG; Example 6, 7 DAT, g ai/ha A-1 12.5, B-5 1066, C-11 400, growth stage 23-30, height 15-20 cm): 20% | % Herbicidal activity (ECHCG; Example 6, 28 DAT, g ai/ha A-1 12.5, B-5 1066, C-11 400, growth stage 23-30, height 15-20 cm): 20% | % Herbicidal activity (ECHCG; Example 7, 28 DAT, g ai/ha A-1 12.5, B-4 1066, C-11 400, growth stage 23-30, height 15-20 cm): 20% | % Herbicidal activity (ECHCG; Example 8, 7 DAT, g ai/ha A-1 12.5, B-5 1066, C-12 252, growth stage 23-30, height 15-20 cm): 20% | % Herbicidal activity (ECHCG; Example 8, 21 DAT, g ai/ha A-1 12.5, B-5 1066, C-12 252, growth stage 23-30, height 15-20 cm): 30% | % Herbicidal activity (ECHCG; Example 8, 28 DAT, g ai/ha A-1 12.5, B-5 1066, C-12 252, growth stage 23-30, height 15-20 cm): 20% | % Herbicidal activity (ECHCG; Example 9, 28 DAT, g ai/ha A-1 12.5, B-4 1066, C-12 252, growth stage 23-30, height 15-20 cm): 20% | % Herbicidal activity (ECHCG; Example 10, 21 DAT, g ai/ha A-1 12.5, B-5 1066, C-4 12.5, growth stage 23-30, height 15-20 cm): 30% | % Herbicidal activity (SETVI): 68% | % Herbicidal activity (GLXMA): 90% | % Herbicidal activity (AMAPA; 13 DAT, g ai/ha A-1 25, B-5 1066, growth stage 16, height 15-25 cm, water volume 187 l/ha): 58% | % Herbicidal activity (AMAPA; 14 DAT, g ai/ha A-1 12.5, B-5 1066, C-10 840, growth stage 12-24, height 5-30 cm, water volume 140 l/ha): 73% | % Herbicidal activity (AMAPA; 14 DAT, g ai/ha A-1 25, B-5 1066, C-10 840, growth stage 12-24, height 5-30 cm, water volume 140 l/ha): 82% | % Herbicidal activity (AMAPA; 19 DAT, g ai/ha A-1 12.5, B-5 1066, growth stage 16, height 15-25 cm, water volume 187 l/ha): 40% | % Herbicidal activity (AMAPA; 19 DAT, g ai/ha A-1 25, B-5 1066, growth stage 16, height 15-25 cm, water volume 187 l/ha): 42% | % Herbicidal activity (AMAPA; 19 DAT, g ai/ha A-1 50, B-5 1066, growth stage 16, height 15-25 cm, water volume 187 l/ha): 52% | % Herbicidal activity (AMAPA; 21 DAT, g ai/ha A-1 12.5, B-5 1066, growth stage 12-28, height 7-20 cm, water volume 140 l/ha): 89% | % Herbicidal activity (AMAPA; 21 DAT, g ai/ha A-1 50, B-5 1066, height 5-23 cm, water volume 140 l/ha): 74% | % Herbicidal activity (DIGSA; 14 DAT, g ai/ha A-1 12.5, B-5 1066, height 2-8 cm, water volume 140 l/ha): 33% | % Herbicidal activity (DIGSA; 14 DAT, g ai/ha A-1 25, B-5 1066, height 2-8 cm, water volume 140 l/ha): 33% | % Herbicidal activity (DIGSA; 14 DAT, g ai/ha A-1 50, B-5 1066, height 2-8 cm, water volume 140 l/ha): 65% | % Herbicidal activity (DIGSA; 15 DAT, g ai/ha A-1 12.5, B-5 1066, C-10 840, growth stage 13-19, height 2-13 cm, water volume 140 l/ha): 68% | % Herbicidal activity (DIGSA; 21 DAT, g ai/ha A-1 12.5, B-5 1066, C-11 655, height 2-8 cm, water volume 140 l/ha): 27% | % Herbicidal activity (DIGSA; 21 DAT, g ai/ha A-1 12.5, B-5 1066, height 2-8 cm, water volume 140 l/ha): 27% | % Herbicidal activity (DIGSA; 21 DAT, g ai/ha A-1 25, B-5 1066, C-11 655, height 2-8 cm, water volume 140 l/ha): 28% | % Herbicidal activity (DIGSA; 21 DAT, g ai/ha A-1 25, B-5 1066, height 2-8 cm, water volume 140 l/ha): 28% | % Herbicidal activity (DIGSA; 21 DAT, g ai/ha A-1 50, B-5 1066, C-11 655, height 2-8 cm, water volume 140 l/ha): 55% | % Herbicidal activity (DIGSA; 21 DAT, g ai/ha A-1 50, B-5 1066, height 2-8 cm, water volume 140 l/ha): 55% | % Herbicidal activity (DIGSA; Example 6, 7 DAT, g ai/ha A-1 12.5, B-5 1066, C-11 400, growth stage 21-22, height 15-20 cm): 35% | % Herbicidal activity (DIGSA; Example 6, 21 DAT, g ai/ha A-1 12.5, B-5 1066, C-11 400, growth stage 21-22, height 15-20 cm): 35% | % Herbicidal activity (CYPES; g ai/ha A-1 12.5, B-5 1066, C-11 655): 20% | % Herbicidal activity (CYPES; g ai/ha A-1 50, B-5 1066, C-11 655): 42% | % Herbicidal activity (CYPES; g ai/ha A-1 50, B-5 1066): 42% | % Herbicidal activity (DATST; Example 4, 7 DAT, g ai/ha A-1 12.5, B-5 1066): 90% | % Herbicidal activity (DATST; Example 6, 21 DAT, g ai/ha A-1 12.5, B-5 1066, C-11 400): 90% | % Herbicidal activity (ZEAMX; Example 4, 7 DAT, g ai/ha A-1 18, B-5 1066, height 50-60 cm): 85% | % Herbicidal activity (ZEAMX; Example 4, 21 DAT, g ai/ha A-1 12.5, B-5 1066, height 50-60 cm): 80% | % Herbicidal activity (ZEAMX; Example 5, 21 DAT, g ai/ha A-1 12.5, B-4 1066, height 50-60 cm): 70% | % Herbicidal activity (ZEAMX; Example 6, 7 DAT, g ai/ha A-1 12.5, B-5 1066, C-11 400, height 25-30 cm): 40% | % Herbicidal activity (ZEAMX; Example 6, 28 DAT, g ai/ha A-1 12.5, B-5 1066, C-11 400, height 50-60 cm): 85% | % Herbicidal activity (ZEAMX; Example 7, 28 DAT, g ai/ha A-1 12.5, B-4 1066, C-11 400, height 50-60 cm): 50% | % Herbicidal activity (ZEAMX; Example 8, 28 DAT, g ai/ha A-1 12.5, B-5 1066, C-12 252, height 50-60 cm): 85% | % Herbicidal activity (ZEAMX; Example 9, 28 DAT, g ai/ha A-1 12.5, B-4 1066, C-12 252, height 50-60 cm): 50% | % Herbicidal activity (ZEAMX; Example 11, 21 DAT, g ai/ha A-1 12.5, B-4 1066, C-4 12.5, height 50-60 cm): 70% | % Herbicidal activity (SETVE; Example 4, 21 DAT, g ai/ha A-1 12.5, B-5 1066, height 8-16 cm): 65% | % Herbicidal activity (SETVE; Example 6, 7 DAT, g ai/ha A-1 12.5, B-5 1066, C-11 400, height 10-15 cm): 75% | % Herbicidal activity (SETVE; Example 6, 21 DAT, g ai/ha A-1 12.5, B-5 1066, C-11 400, height 10-15 cm): 55% | % Herbicidal activity (HORVW; Example 4, 21 DAT, g ai/ha A-1 12.5, B-5 1066): 60% | % Herbicidal activity (HORVW; Example 5, 7 DAT, g ai/ha A-1 12.5, B-4 1066): 60% | % Herbicidal activity (HORVW; Example 6, 28 DAT, g ai/ha A-1 12.5, B-5 1066, C-11 400): 60% | % Herbicidal activity (HORVW; Example 7, 28 DAT, g ai/ha A-1 12.5, B-4 1066, C-11 400): 90% | % Herbicidal activity (HORVW; Example 8, 21 DAT, g ai/ha A-1 12.5, B-5 1066, C-12 252): 80% | % Herbicidal activity (HORVW; Example 9, 21 DAT, g ai/ha A-1 12.5, B-4 1066, C-12 252): 80% | % Herbicidal activity (HORVW; Example 10, 21 DAT, g ai/ha A-1 12.5, B-5 1066, C-4 12.5): 80% | % Herbicidal activity (HORVW; Example 11, 21 DAT, g ai/ha A-1 12.5, B-4 1066, C-4 12.5): 80%
